Experimental data as given in the supplement of paper PMC10307832.

Columns and labels:
Assay in all cases: relative viability (nuclei count vs DMSO), 5 days (fraction); higher = more cells survive
VE-821 + Bortezomib = compound: CS(=O)(=O)c1ccc(-c2cnc(N)c(C(=O)Nc3ccccc3)n2)cc1 [VE-821] + CC(C)C[C@H](NC(=O)[C@H](Cc1ccccc1)NC(=O)c1cnccn1)B(O)O [Bortezomib] (partner 0.002 µM)
Procedure, shortened: (§1)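 The day after seeding in 1536-well plates, lung cancer cell lines were treated by pin tool with a single drug, or with a fixed anchor-drug dose together with five library-drug doses (not always all listed) in √10 steps. After 5 days, a combined fix-and-stain solution (final 0.05% Triton X-100, 1% formaldehyde, 1 ug/ml Hoechst) was added. Nuclei counted on 4× images gave relative viability as treated counts over vehicle counts, reported as the median of duplicate plates.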

VE-821 + Tozasertib = compound: CS(=O)(=O)c1ccc(-c2cnc(N)c(C(=O)Nc3ccccc3)n2)cc1 [VE-821] + Cc1cc(Nc2cc(N3CCN(C)CC3)nc(Sc3ccc(NC(=O)C4CC4)cc3)n2)n[nH]1 [Tozasertib] (partner 0.1 µM)
Procedure, shortened: as §1

Vismodegib + Decitabine = compound: CS(=O)(=O)c1ccc(C(=O)Nc2ccc(Cl)c(-c3ccccn3)c2)c(Cl)c1 [Vismodegib] + Nc1ncn([C@H]2C[C@H](O)[C@@H](CO)O2)c(=O)n1 [Decitabine] (partner 2 µM)
Procedure, shortened: as §1

Vismodegib + Phenformin = compound: CS(=O)(=O)c1ccc(C(=O)Nc2ccc(Cl)c(-c3ccccn3)c2)c(Cl)c1 [Vismodegib] + N=C(N)NC(=N)NCCc1ccccc1 [Phenformin] (partner 250 µM)
Procedure, shortened: as §1

Cell Line	relative viability (VE-821 + Bortezomib; first compound 0.08 µM)	relative viability (VE-821 + Bortezomib; first compound 0.253 µM)	relative viability (VE-821 + Bortezomib; first compound 0.8 µM)	relative viability (VE-821 + Bortezomib; first compound 2.53 µM)	relative viability (VE-821 + Bortezomib; first compound 8 µM)	relative viability (VE-821 + Tozasertib; first compound 0.08 µM)	relative viability (VE-821 + Tozasertib; first compound 0.253 µM)	relative viability (VE-821 + Tozasertib; first compound 0.8 µM)	relative viability (VE-821 + Tozasertib; first compound 2.53 µM)	relative viability (VE-821 + Tozasertib; first compound 8 µM)	relative viability (Vismodegib + Decitabine; first compound 0.08 µM)	relative viability (Vismodegib + Decitabine; first compound 0.253 µM)	relative viability (Vismodegib + Decitabine; first compound 0.8 µM)	relative viability (Vismodegib + Decitabine; first compound 2.53 µM)	relative viability (Vismodegib + Decitabine; first compound 8 µM)	relative viability (Vismodegib + Phenformin; first compound 0.08 µM)	relative viability (Vismodegib + Phenformin; first compound 0.253 µM)	relative viability (Vismodegib + Phenformin; first compound 0.8 µM)	relative viability (Vismodegib + Phenformin; first compound 2.53 µM)	relative viability (Vismodegib + Phenformin; first compound 8 µM)
HCC-366	1.06	1.03	1.04	0.625	0.062	0.0768	0.0713	0.0434	0.0568	0.0298	0.374	0.283	0.377	0.331	0.311	0.683	0.614	0.631	0.619	0.586
HCC-827	1.01	0.996	1.04	1.12	1.08	0.427	0.424	0.391	0.394	0.372	0.326	0.333	0.34	0.302	0.353	0.39	0.406	0.381	0.384	0.408
HOP-62	0.726	0.389	0.889	0.838	0.718	0.399	0.404	0.349	0.382	0.361	0.227	0.22	0.208	0.22	0.183	0.645	0.637	0.665	0.698	0.569
IA-LM	0.762	0.795	0.781	0.803	0.764															
LC-2-ad	1.19	1.06	0.569	1.17	1.07	0.427	0.597	0.504	0.565	0.426	0.746	0.717	0.834	0.693	0.777	0.626	0.583	0.561	0.618	0.494
LCLC-97TM1	0.633	0.634	0.726	0.541	0.568	0.307	0.224	0.213	0.484	0.184	0.214	0.25	0.351	0.229	0.223	0.443	0.407	0.42	0.452	0.407
LK-2						0.172	0.174	0.161	0.197	0.202	0.356	0.253	0.282	0.283	0.28	0.617	0.619	0.431	0.366	0.373
NCI-H358						0.12	0.105	0.0999	0.0895	0.0895	0.21	0.228	0.21	0.256	0.225	0.345	0.418	0.359	0.329	0.292
NCI-H522						0.633	0.63	0.537	0.453	0.575	0.634	0.64	0.637	0.686	0.621	0.643	0.618	0.673	0.657	0.632
NCI-H1299	0.992	1	0.973	0.924	0.972															
